From patent publication US20260275249A1, “Bleach Catalyst With Improved Performance, Granule Comprising The Bleach Catalyst, And Composition Comprising Said Catalyst Or Said Granule” (Reckitt Benckiser Vanish B.V., priority 2023, published 2026) come the findings set out here.

“Also recorded” adds a separate entry of the source.

Data set [1] can be described thus: Stability of bleach catalysts: UV-vis absorbance of solutions at pH 11. It counts as physicochemical. On the procedure: The stability of bleach catalysts having the structures shown in Table 2 was determined by preparing solutions of these compounds and measuring their UV-vis absorbance.
A solution of each compound was prepared by dissolving each compound in a mixture of 50 wt. % water and 50 wt. % acetone. The concentration of each solution was 0.28 mM.
The pH of each solution was set to 11 by adding a diluted solution of sodium hydroxide.
The UV-vis absorption of each solution was measured just after preparing the samples (t=0), then at 2 h and 48 h using a UV-Vis Evolution 220 FC-1135 spectrophotometer.

A short description of data set [2]: Amount of solvent system needed to dissolve 0.2 g of bleach catalyst (effect of surfactant on solubility). The format is physicochemical. The procedure: The amount of solvent needed to dilute 0.2 g of bleach catalyst 1 was determined. Subsequently solvent systems containing a solvent and 0.06 wt. % of surfactant, based on the total weight of the solvent system, were prepared, and the amount of solvent system needed to dilute 0.2 g of bleach catalyst 1 was determined. It will be recognised that for the preparation of a supported catalyst on a carrier it is necessary to dilute the bleach catalyst in a solvent system.
The results of the amount of solvent system without surfactant and solvent system with surfactant needed to dissolve 0.2 g of bleach catalyst 1 are shown in Table 5.

[3] abbreviates: t = 0, 0.28 mM in 50 wt. % water / 50 wt. % acetone.
[4] abbreviates: t = 48 h, 0.28 mM in 50 wt. % water / 50 wt. % acetone.

As to `CC(C)(C)C1=NS(=O)(=O)c2ccccc21` [Bleach catalyst C, 3-tert-butyl-1,2-benzisothiazole-1,1-dioxide], in data set [1] (setting [3]), the “Absorption at 445 nm” value is on record as under 0.05 and the Appearance result is “Transparent”. Moreover, in data set [1] (setting [4]), the “Absorption at 445 nm” value is under 0.05 and the Appearance result was “Transparent”.

For `O=S1(=O)N=C(c2cccnc2)c2ccccc21` [Bleach catalyst 2, 3-(pyridine-3-yl)-1,2-benzisothiazole-1,1-dioxide], in data set [1] (setting [3]), the “Absorption at 445 nm” value is reported as under 0.05 and the Appearance entry is “Transparent”. In addition, in data set [1] (setting [4]), the “Absorption at 445 nm” value was under 0.05 and the Appearance entry is “Transparent”.

As for `CC1=NS(=O)(=O)c2ccccc21` [Bleach catalyst A, 3-methyl-1,2-benzisothiazole-1,1-dioxide], in data set [1] (setting [3]), the “Absorption at 445 nm” value is recorded as under 0.05 and the Appearance entry is “Transparent”. Moreover, in data set [1] (setting [4]), the “Absorption at 445 nm” value is recorded as 0.37 and the Appearance entry is “coloured/yellow; also recorded: Yellowing”.

In the case of `O=S1(=O)N=C(c2ccccc2)c2ccccc21` [Bleach catalyst B, 3-phenyl-1,2-benzisothiazole-1,1-dioxide], in data set [1] (setting [3]), the “Absorption at 445 nm” value is under 0.05 and the Appearance entry is “Transparent”. Besides, in data set [1] (setting [4]), the “Absorption at 445 nm” value is on record as under 0.05 and the Appearance entry is on record as “Transparent”.

With `O=S1(=O)N=C(c2ccccn2)c2ccccc21` [Bleach catalyst 1, 3-(33yridine-2-yl)-1,2-benzisothiazole-1,1-dioxide], the “Amount of solvent system needed to dissolve 0.2 g of bleach catalyst” value in data set [2] (Acetone) turned out to be 5 g; in data set [2] (Acetone with 0.06 wt. % surfactant (ROKAnol L7A)), 2.5 g; in data set [2] (Ethyl acetate), 13 g; in data set [2] (Ethyl acetate with 0.06 wt. % surfactant (ROKAnol L7A)), 11 g; in data set [2] (Tetrahydrofuran), 3.5 g; in data set [2] (Tetrahydrofuran with 0.06 wt. % surfactant (ROKAnol L7A)) it was 2.75 g. The “Absorption at 445 nm” value in data set [1] (setting [3]) and in data set [1] (setting [4]) was under 0.05 in each case. Besides, the Appearance entry in data set [1] (setting [3]) and in data set [1] (setting [4]) was “Transparent” throughout.
